Calls of active or inactive are those of the source. The calls are words filed in the database; no cut-off is given here.
Key:
[1] = system: HL-60; assay: Cytotoxicity against human topoisomerase 2-sensitive HL60 cells after 72 hrs by MTT assay; format: functional, cell-based; settings: HL-60, 72 h
[2] = system: Nucleic Acid; assay: Binding affinity to [poly(dAdT)]2 DNA assessed as change in melting temperature at 10 uM; format: nucleic-acid assay
[3] = Cytotoxicity against human HL60/MX2 cells after 72 hrs by MTT assay; format: functional, cell-based; settings: HL60/MX2, 72 h
[4] = system: Nucleic Acid; assay: Binding affinity to [poly(dAdT)]2 DNA assessed as change in melting temperature at 20 uM; format: nucleic-acid assay
[5] = system: Calf thymus DNA; assay: Binding affinity to calf thymus DNA assessed as change in melting temperature at 20 uM; format: nucleic-acid assay; settings: Bos taurus
[6] = system: Calf thymus DNA; assay: Binding affinity to calf thymus DNA assessed as change in melting temperature at 10 uM; format: nucleic-acid assay; settings: Bos taurus
[7] = target: T1, DNA topoisomerase 1 (Homo sapiens) (UniProt P11387); assay: Inhibition of human topoisomerase 1-mediated relaxation of pUC18 DNA assessed as formation of nicked DNA up to 50 uM using ethidium bromide staining by agarose gel electrophoresis
T1 sequence (whole entry): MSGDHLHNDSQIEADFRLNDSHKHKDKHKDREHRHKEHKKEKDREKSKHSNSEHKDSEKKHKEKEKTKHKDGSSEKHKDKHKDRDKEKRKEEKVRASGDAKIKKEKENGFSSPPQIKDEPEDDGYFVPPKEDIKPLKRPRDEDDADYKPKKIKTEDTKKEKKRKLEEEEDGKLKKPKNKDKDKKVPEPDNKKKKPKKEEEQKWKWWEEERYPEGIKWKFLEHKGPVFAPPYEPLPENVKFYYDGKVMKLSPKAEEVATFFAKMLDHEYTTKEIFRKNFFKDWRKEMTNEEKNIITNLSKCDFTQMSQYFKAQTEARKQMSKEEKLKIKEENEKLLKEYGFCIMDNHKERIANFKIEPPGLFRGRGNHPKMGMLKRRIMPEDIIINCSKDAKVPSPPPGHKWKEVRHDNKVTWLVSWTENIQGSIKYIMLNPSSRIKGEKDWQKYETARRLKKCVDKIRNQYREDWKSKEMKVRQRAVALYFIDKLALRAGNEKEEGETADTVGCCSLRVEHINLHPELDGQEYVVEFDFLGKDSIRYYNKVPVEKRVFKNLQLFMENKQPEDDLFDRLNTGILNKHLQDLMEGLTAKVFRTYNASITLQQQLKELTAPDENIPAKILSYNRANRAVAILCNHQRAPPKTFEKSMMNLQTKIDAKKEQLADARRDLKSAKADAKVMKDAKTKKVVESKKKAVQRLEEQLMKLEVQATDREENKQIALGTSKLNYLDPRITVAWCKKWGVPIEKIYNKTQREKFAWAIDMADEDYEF

[8] = target: DNA topoisomerase 2-alpha (Homo sapiens) (UniProt P11388); assay: Inhibition of human topoisomerase 2-mediated relaxation of pUC18 DNA assessed as formation of nicked DNA at 50 uM using ethidium bromide staining by agarose gel electrophoresis
DNA topoisomerase 2-alpha (Homo sapiens), sequence (P11388 whole entry): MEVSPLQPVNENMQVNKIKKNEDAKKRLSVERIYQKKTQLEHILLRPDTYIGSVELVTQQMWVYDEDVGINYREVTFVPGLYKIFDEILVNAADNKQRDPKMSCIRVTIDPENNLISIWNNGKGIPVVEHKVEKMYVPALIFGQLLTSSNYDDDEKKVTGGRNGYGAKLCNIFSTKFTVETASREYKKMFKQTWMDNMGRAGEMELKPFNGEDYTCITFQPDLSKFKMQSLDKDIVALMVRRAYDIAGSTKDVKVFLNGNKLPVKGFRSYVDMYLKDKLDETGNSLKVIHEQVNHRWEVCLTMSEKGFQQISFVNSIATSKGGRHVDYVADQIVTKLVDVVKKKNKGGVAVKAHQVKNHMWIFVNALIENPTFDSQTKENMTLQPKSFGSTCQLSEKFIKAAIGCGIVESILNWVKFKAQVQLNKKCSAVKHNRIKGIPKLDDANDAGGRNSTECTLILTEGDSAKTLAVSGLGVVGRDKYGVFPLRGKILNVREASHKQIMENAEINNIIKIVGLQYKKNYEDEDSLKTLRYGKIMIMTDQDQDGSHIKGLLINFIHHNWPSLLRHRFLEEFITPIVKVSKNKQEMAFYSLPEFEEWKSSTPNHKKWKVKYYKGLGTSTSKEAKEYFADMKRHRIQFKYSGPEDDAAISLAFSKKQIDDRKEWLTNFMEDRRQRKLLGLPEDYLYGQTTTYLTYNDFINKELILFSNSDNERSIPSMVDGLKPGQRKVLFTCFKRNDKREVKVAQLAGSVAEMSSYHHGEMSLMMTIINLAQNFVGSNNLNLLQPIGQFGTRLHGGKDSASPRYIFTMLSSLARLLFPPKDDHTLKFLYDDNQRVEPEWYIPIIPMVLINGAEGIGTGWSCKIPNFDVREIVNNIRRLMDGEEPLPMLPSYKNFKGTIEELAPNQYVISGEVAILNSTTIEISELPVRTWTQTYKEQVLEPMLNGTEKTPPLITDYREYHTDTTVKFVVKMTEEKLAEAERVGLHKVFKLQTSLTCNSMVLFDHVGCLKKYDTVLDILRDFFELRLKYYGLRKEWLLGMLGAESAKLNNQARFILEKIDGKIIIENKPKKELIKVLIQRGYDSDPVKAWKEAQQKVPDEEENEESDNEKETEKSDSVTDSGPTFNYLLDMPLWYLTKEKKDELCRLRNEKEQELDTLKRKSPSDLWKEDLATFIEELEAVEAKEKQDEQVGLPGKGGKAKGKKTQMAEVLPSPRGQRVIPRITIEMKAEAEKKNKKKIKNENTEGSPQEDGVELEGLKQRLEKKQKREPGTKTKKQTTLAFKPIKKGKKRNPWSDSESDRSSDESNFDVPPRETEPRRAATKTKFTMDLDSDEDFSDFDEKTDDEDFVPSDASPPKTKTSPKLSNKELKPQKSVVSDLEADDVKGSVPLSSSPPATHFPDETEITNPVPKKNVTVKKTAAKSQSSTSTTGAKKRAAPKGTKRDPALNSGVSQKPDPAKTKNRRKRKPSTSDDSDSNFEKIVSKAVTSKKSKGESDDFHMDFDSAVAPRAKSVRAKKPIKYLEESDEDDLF

ΔTm [2] | ΔTm [4] | ΔTm [5] | ΔTm [6] | inhibition [7] | inhibition [8] | SMILES | IC50 [1] | IC50 [3]
15.9 °C | 15.4 °C | 2.3 °C | 3 °C | inactive | – | CCn1c2ccccc2c2c3c(=O)[nH]c(NCCN(C)C)nc3ccc21 | 17 µM | 17 µM
4.4 °C | 3 °C | 0 °C | 0.4 °C | inactive | 10% | CN(C)CCNc1nc2c([nH]c3ccccc32)c(=O)[nH]1 | > 100 µM | > 100 µM
0 °C | 0 °C | 0 °C | 0 °C | – | – | COc1cc([C@@H]2c3cc4c(cc3[C@@H](O[C@@H]3O[C@@H]5CO[C@@H](C)O[C@H]5[C@H](O)[C@H]3O)[C@H]3COC(=O)[C@H]23)OCO4)cc(OC)c1O [ETOPOSIDE] | 1.3 µM | 11.9 µM

From ChEMBL document CHEMBL1177780, “Montmorillonite K-10 catalyzed cyclization of N-ethoxycarbonyl-N'-arylguanidines: access to pyrimido[4,5-c]carbazole and pyrimido[5,4-b]indole derivatives” (Bioorg Med Chem Lett, 2010)
